The test system of one experiment is Ba/F3 (N-Ras G12D). Kind of experiment: Proliferation inhibitory activity, Ba/F3 N-Ras G12D. The format is cell-based. On the procedure:
(§1) The inhibitory activities of the compounds of the present disclosure against the proliferation of the mt-NRAS (G12D) Ba/F3 and OCI-AML3 (mt-NRAS) cell lines were measured and the GI50 values thereof were calculated.

The next experiment concerns OCI-AML3 (N-Ras Q61L). Kind of experiment: Proliferation inhibitory activity, OCI-AML3. Type of experiment: cell-based, human. On the procedure: as §1
For the next experiment, the target named is T1, GCK (Homo sapiens, UniProt Q12851).
T1 sequence (Q12851 1-820): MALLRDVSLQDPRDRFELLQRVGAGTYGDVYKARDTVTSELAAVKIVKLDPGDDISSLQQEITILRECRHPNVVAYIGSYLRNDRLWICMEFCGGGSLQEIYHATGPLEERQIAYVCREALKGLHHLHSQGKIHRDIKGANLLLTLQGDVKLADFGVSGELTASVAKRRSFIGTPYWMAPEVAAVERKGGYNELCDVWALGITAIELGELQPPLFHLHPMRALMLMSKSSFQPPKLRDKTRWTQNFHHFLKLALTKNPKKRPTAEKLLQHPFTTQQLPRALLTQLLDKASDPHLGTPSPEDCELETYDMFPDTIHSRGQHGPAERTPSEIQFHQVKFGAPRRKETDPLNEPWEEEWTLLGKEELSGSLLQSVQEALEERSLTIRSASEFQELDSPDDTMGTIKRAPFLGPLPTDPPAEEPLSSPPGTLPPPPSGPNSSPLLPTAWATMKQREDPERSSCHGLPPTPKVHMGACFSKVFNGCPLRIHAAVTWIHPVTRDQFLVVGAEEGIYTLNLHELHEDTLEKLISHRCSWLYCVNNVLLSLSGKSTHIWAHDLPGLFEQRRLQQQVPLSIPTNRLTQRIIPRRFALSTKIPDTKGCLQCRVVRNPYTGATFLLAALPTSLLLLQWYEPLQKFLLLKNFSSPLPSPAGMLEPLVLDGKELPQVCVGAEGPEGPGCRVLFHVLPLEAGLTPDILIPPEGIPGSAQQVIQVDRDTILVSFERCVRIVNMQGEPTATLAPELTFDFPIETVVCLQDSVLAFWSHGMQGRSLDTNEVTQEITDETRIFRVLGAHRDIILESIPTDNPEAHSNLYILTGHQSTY
The experiment can be described thus: Inhibitory activity against GCK kinase (IC50). The format is biochemical. On the procedure: (§2) The inhibitory activities of the compounds of the present disclosure against two kinases, GCK and ACK1, were measured, and the IC50 values thereof were calculated.

The next experiment deals with ACK1 (Homo sapiens, UniProt Q07912). The experiment can be described thus: Inhibitory activity against ACK1 kinase (IC50). Type of experiment: biochemical. On the procedure: as §2
Sequence of ACK1 (Q07912 whole entry): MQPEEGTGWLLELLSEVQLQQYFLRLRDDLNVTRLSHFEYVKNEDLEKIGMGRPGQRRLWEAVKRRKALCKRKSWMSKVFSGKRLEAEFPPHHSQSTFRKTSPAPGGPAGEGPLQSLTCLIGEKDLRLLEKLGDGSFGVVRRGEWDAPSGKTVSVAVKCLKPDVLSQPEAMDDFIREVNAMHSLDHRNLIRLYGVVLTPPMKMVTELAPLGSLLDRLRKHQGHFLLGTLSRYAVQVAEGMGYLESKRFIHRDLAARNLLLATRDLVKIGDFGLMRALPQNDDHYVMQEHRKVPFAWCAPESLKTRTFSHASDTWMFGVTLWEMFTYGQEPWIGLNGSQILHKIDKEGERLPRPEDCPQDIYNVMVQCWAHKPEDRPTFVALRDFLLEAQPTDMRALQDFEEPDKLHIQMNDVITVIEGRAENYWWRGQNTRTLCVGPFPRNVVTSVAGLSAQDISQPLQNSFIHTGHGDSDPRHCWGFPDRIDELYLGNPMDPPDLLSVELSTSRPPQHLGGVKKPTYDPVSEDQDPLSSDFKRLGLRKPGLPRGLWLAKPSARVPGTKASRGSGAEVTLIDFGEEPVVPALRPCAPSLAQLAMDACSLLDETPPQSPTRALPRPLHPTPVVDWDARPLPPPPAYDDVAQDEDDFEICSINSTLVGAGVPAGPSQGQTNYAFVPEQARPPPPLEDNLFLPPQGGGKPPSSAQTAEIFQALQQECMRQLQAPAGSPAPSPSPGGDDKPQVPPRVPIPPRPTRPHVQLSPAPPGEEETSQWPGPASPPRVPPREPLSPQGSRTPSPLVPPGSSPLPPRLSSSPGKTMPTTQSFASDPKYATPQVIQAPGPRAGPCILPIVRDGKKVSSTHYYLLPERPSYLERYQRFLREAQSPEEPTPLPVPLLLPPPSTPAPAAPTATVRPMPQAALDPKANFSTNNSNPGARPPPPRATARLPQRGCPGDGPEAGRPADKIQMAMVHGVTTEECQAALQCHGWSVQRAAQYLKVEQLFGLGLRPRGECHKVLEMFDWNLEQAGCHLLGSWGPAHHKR

Results on 13 molecules are retold here after US20260070903A1, “NOVEL PYRIDO[3,4-D]PYRIMIDIN-8-ONE DERIVATIVE HAVING PROTEIN KINASE INHIBITORY ACTIVITY, AND PHARMACEUTICAL COMPOSITION FOR PREVENTING, ALLEVIATING, OR TREATING CANCER, COMPRISING SAME” (KOREA INSTITUTE OF SCIENCE AND TECHNOLOGY, priority 2019, published 2026).

What is called GI50 is the concentration at which growth is held to half of that of the control. As usually defined, the IC50 is the concentration that inhibits the measured activity by half. Read a high IC50 as weaker potency in that assay.

Where only a bound is given, the exact number is not on record here.

Regarding `Cc1ccc(NC(=O)c2cccc(C(F)(F)F)c2)cc1-c1cc2cnc(Nc3ccc(N4CCC(O)CC4)cc3)nc2c(=O)n1C` [Compound No. 19, N-(3-(2-((4-(4-hydroxypiperidin-1-yl)phenyl)amino)-7-methyl-8-oxo-7,8-dihydropyrido[3,4-d]pyrimidin-6-yl)-4-methylphenyl)-3-(trifluoromethyl)benzamide], the concentration for 50% growth inhibition (GI50) was in the range of 0.5 to 3 µM with Ba/F3 (N-Ras G12D) (Mus musculus, BaF3) and 0.5 to 3 µM with OCI-AML3 (N-Ras Q61L) (Homo sapiens, OCI-AML-3).
With `Cc1ccc(NC(=O)c2cccc(C(F)(F)F)c2)cc1-c1cc2cnc(NC3CC3)nc2c(=O)n1C` [Compound No. 1, N-(3-(2-(cyclopropylamino)-7-methyl-8-oxo-7,8-dihydropyrido[3,4-d]pyrimidin-6-yl)-4-methylphenyl)-3-(trifluoromethyl)benzamide], the 50% growth inhibitory concentration (GI50) in the experiment with Ba/F3 (N-Ras G12D) (Mus musculus, BaF3) was in the range of 0.5 to 3 µM; in the experiment on OCI-AML3 (N-Ras Q61L) (Homo sapiens, OCI-AML-3), 0.5 to 3 µM.
Regarding `Cc1ccc(NC(=O)c2cccc(C(F)(F)F)c2)cc1-c1cc2cnc(Nc3ccc(C(=O)N(C)C)cc3)nc2c(=O)n1C` [Compound No. 15], the GI50 was 0.5 to 3 µM in the experiment with Ba/F3 (N-Ras G12D) (Mus musculus, BaF3) and 0.5 to 3 µM in the experiment on OCI-AML3 (N-Ras Q61L) (Homo sapiens, OCI-AML-3).
Take `Cc1ccc(NC(=O)c2cccc(C(F)(F)F)c2)cc1-c1cc2cnc(NC3CC3)nc2c(=O)[nH]1` [Compound No. 53, N-(3-(2-(cyclopropylamino)-8-oxo-7,8-dihydropyrido[3,4-d]pyrimidin-6-yl)-4-methylphenyl)-3-(trifluoromethyl)benzamide]: the IC50 at GCK was 100 to 1000 nM; against ACK1 it was less than 100 nM. The concentration for 50% growth inhibition (GI50) in the experiment on Ba/F3 (N-Ras G12D) (Mus musculus, BaF3) was less than 0.5 µM; in the experiment on OCI-AML3 (N-Ras Q61L) (Homo sapiens, OCI-AML-3), less than 0.5 µM.
Consider `Cc1ccc(NC(=O)c2cccc(C(F)(F)F)c2)cc1-c1cc2cnc(NCCN3CCOCC3)nc2c(=O)n1C` [Compound No. 6, N-(4-methyl-3-(7-methyl-2-((2-morpholinoethyl)amino)-8-oxo-7,8-dihydropyrido[3,4-d]pyrimidin-6-yl)phenyl)-3-(trifluoromethyl)benzamide], for which the concentration for 50% growth inhibition (GI50) in the experiment with Ba/F3 (N-Ras G12D) (Mus musculus, BaF3) was 0.5 to 3 µM; in the experiment with OCI-AML3 (N-Ras Q61L) (Homo sapiens, OCI-AML-3), 0.5 to 3 µM.
With `Cc1ccc(NC(=O)c2cccc(C(F)(F)F)c2)cc1-c1cc2cnc(NCCSCc3ccco3)nc2c(=O)n1C` [Compound No. 11, N-(3-(2-((2-((furan-2-ylmethyl)thio)ethyl)amino)-7-methyl-8-oxo-7,8-dihydiropyrido[3,4-d]pyrimidin-6-yl)-4-methylphenyl)-3-(trifluoromethyl)benzamide], the values for the concentration for 50% growth inhibition (GI50) in the experiment on Ba/F3 (N-Ras G12D) (Ba/F3 (N-Ras G12D)) and in the experiment with OCI-AML3 (N-Ras Q61L) (OCI-AML3 (N-Ras Q61L)) were more than 5 µM and 3 to 5 µM, respectively.
On to `COc1cc(N2CCOCC2)ccc1Nc1ncc2cc(-c3cc(NC(=O)c4cccc(C(F)(F)F)c4)ccc3C)n(C)c(=O)c2n1` [Compound No. 22, N-(3-(2-((2-methoxy-4-morpholinophenyl)amino)-7-methyl-8-oxo-7,8-dihydropyrido[3,4-d]pyrimidin-6-yl)-4-methylphenyl)-3-(trifluoromethyl)benzamide], for which the GI50 with Ba/F3 (N-Ras G12D) (Mus musculus, BaF3) is more than 5 µM; with OCI-AML3 (N-Ras Q61L) (Homo sapiens, OCI-AML-3), more than 5 µM.
For the molecule `Cc1ccc(NC(=O)c2cccc(C(F)(F)F)c2)cc1-c1cc2cnc(NCCO)nc2c(=O)n1C` [Compound No. 2, N-(3-(2-((2-hydroxyethyl)amino)-7-methyl-8-oxo-7,8-dihydropyrido[3,4-d]pyrimidin-6-yl)-4-methylphenyl)-3-(trifluoromethyl)benzamide], the 50% growth inhibitory concentration (GI50) with Ba/F3 (N-Ras G12D) (Mus musculus, BaF3) lay in the range of 0.5 to 3 µM; in the experiment on OCI-AML3 (N-Ras Q61L) (Homo sapiens, OCI-AML-3) it was 0.5 to 3 µM.
With `CCN1CCN(c2ccc(Nc3ncc4cc(-c5cc(NC(=O)c6cccc(C(F)(F)F)c6)ccc5C)n(C)c(=O)c4n3)cc2)CC1` [Compound No. 17, N-(3-(2-((4-(4-ethylpiperazin-1-yl)phenyl)amino)-7-methyl-8-oxo-7,8-dihydropyrido[3,4-d]pyrimidin-6-yl)-4-methylphenyl)-3-(trifluoromethyl)benzamide], the GI50 with Ba/F3 (N-Ras G12D) (Mus musculus, BaF3) was 0.5 to 3 µM; with OCI-AML3 (N-Ras Q61L) (Homo sapiens, OCI-AML-3), less than 0.5 µM.
`COc1ccc(CNc2ncc3cc(-c4cc(NC(=O)c5cccc(C(F)(F)F)c5)ccc4C)n(C)c(=O)c3n2)cc1` [Compound No. 10, N-(3-(2-((4-methoxybenzyl)amino)-7-methyl-8-oxo-7,8-dihydropyrido[3,4-d]pyrimidin-6-yl)-4-methylphenyl)-3-(trifluoromethyl)benzamide]: the 50% growth inhibitory concentration (GI50) is more than 5 µM with Ba/F3 (N-Ras G12D) (Mus musculus, BaF3) and more than 5 µM with OCI-AML3 (N-Ras Q61L) (Homo sapiens, OCI-AML-3).
For the molecule `Cc1ccc(NC(=O)c2cccc(C(F)(F)F)c2)cc1-c1cc2cnc(N3CCOCC3)nc2c(=O)n1C` [Compound No. 12, N-(4-methyl-3-(7-methyl-2-morpholino-8-oxo-7,8-dihydropyrido[3,4-d]pyrimidin-6-yl)phenyl)-3-(trifluoromethyl)benzamide], the 50% growth inhibitory concentration (GI50) in the experiment with Ba/F3 (N-Ras G12D) (Mus musculus, BaF3) is more than 5 µM; in the experiment on OCI-AML3 (N-Ras Q61L) (Homo sapiens, OCI-AML-3) it was 0.5 to 3 µM.
In the case of `Cc1ccc(Nc2ncc3cc(-c4cc(NC(=O)c5cccc(C(F)(F)F)c5)ccc4C)n(C)c(=O)c3n2)cn1` [Compound No. 13, N-(4-methyl-3-(7-methyl-2-((6-methylpyridin-3-yl)amino)-8-oxo-7,8-dihydropyrido[3,4-d]pyrimidin-6-yl)phenyl)-3-(trifluoromethyl)benzamide], the concentration for half-maximal inhibition (IC50) is 100 to 1000 nM on GCK and less than 100 nM against ACK1. Further, the concentration for 50% growth inhibition (GI50) in the experiment on Ba/F3 (N-Ras G12D) (Mus musculus, BaF3) is less than 0.5 µM; with OCI-AML3 (N-Ras Q61L) (Homo sapiens, OCI-AML-3), less than 0.5 µM.
For `Cc1ccc(Nc2ncc3cc(-c4cc(NC(=O)c5cccc(C(F)(F)F)c5)ccc4C)[nH]c(=O)c3n2)cn1` [Compound No. 54, N-(4-methyl-3-(2-((6-methylpyridin-3-yl)amino)-8-oxo-7,8-dihydropyrido[3,4-d]pyrimidin-6-yl)phenyl)-3-(trifluoromethyl)benzamide], the GI50 in the experiment with Ba/F3 (N-Ras G12D) (Mus musculus, BaF3) is 0.5 to 3 µM; with OCI-AML3 (N-Ras Q61L) (Homo sapiens, OCI-AML-3), less than 0.5 µM.
